Test results taken from publication PMC8174488, “4-Arylthiosemicarbazide derivatives as a new class of tyrosinase inhibitors and anti-Toxoplasma gondii agents” (Journal of Enzyme Inhibition and Medicinal Chemistry, 2021).
Where “and” joins values, the source holds several entries; their conditions need not be identical. Equal values may be shown once.

Test system: not given
Assay: not given
Conditions: not given

SMILES | melting point
O=C(NNC(=S)Nc1ccccc1I)C1CCCC1 [Compound 5b, 1-Cyclopentanoyl-4–(2-iodophenyl)thiosemicarbazide] | 182 to 184 °C
O=C(NNC(=S)Nc1ccccc1Br)C1CCCC1 [Compound 4b, 4–(2-Bromophenyl)-1-cyclopentanoylthiosemicarbazide] | 179 to 181 °C
O=C(NNC(=S)Nc1cccc(I)c1)C1CCCC1 [Compound 6b, 1-Cyclopentanoyl-4–(3-iodophenyl)thiosemicarbazide] | 173 to 175 °C
O=C(NNC(=S)Nc1cccc([N+](=O)[O-])c1)C1CCCC1 [Compound 1b, 1-Cyclopentanoyl-4–(3-nitrophenyl)thiosemicarbazide] | 134 to 136 °C
O=C(NNC(=S)Nc1ccccc1Cl)C1CCCC1 [Compound 3b, 4–(2-Chlorophenyl)-1-cyclopentanoylthiosemicarbazide] | 178 to 180 °C
O=C(NNC(=S)Nc1ccc([N+](=O)[O-])cc1)C1CCCC1 [Compound 2b, 1-Cyclopentanoyl-4–(4-nitrophenyl)thiosemicarbazide] | 170 to 172 °C
COc1ccccc1NC(=S)NNC(=O)C1CCCC1 [Compound 7b, 1-Cyclopentanoyl-4–(2-methoxyphenyl)thiosemicarbazide] | 176 to 178 °C
Cc1ccc(NC(=S)NNC(=O)C2CCCC2)cc1 [Compound 8b, 1-Cyclopentanoyl-4–(4-methylphenyl)thiosemicarbazide] | 175 to 177 °C
O=C(NNC(=S)Nc1cc(F)ccc1F)C1CCCC1 [Compound 9b, 1-Cyclopentanoyl-4–(2,5-difluorophenyl)thiosemicarbazide] | 178 to 180 °C

Test system: Hs27 cell line
Assay: Cytotoxicity assay (MTT) on human fibroblast Hs27 cells
Type: cell-based
Conditions: not given
Protocol: (§1) Cell viability assay was performed according to international standards (ISO 10993–5:2009(E)), using tetrazolium salt (MTT, Sigma-Aldrich) and mouse fibroblasts L929 cells. Culture medium RPMI 1640, without phenol red (Biowest, Nuaille, France) supplemented with 10% FBS, 2 mM L-glutamine (Sigma-Aldrich), 100 I.U./mL penicillin, 100 µg/mL streptomycin were used. Briefly, 1 × 10^4/well of L929 cells were placed in 96-well plates and incubated for 24 h at 37 °C and 10% CO2. Afterwards, the old culture medium was replaced with 100 µL of the compound, drug or inhibitor, diluted in culture medium, and the cells treated for 24 h. Additionally, cells were treated with 0.03–4.0% concentration of DMSO as the solvent (data not shown). Then, 50 µL of 1 mg/mL of MTT solution in RPMI 1640 without phenol red was added to each well and incubated for 2 h at 37 °C and 10% CO2. Next, cell culture medium was aspirated carefully and 150 µL of DMSO was added to each well, and the plates were gently mixed. Then, 25 µL 0.1 M glycine buffer (pH 10.5) (Sigma-Aldrich) was added. The optical density at 570 nm using a multi-mode microplate reader SpectraMax® i3 (Syngen, Taipei City, Taiwan) was recorded. The results were expressed as a percentage of viability compared to untreated cells. All experiments were performed in triplicate. Cytotoxicity assay using human fibroblast Hs27 cells was also performed as described above (included in Supplementary Material).

SMILES | CC30
Cc1ccc(NC(=S)NNC(=O)c2[nH]cnc2C)cc1 [Compound 8a] | 421.89 µM

Same assay, conditions: Hs27 cell line, MTT

SMILES | CC30
O=C(NNC(=S)Nc1ccccc1I)C1CCCC1 [Compound 5b, 1-Cyclopentanoyl-4–(2-iodophenyl)thiosemicarbazide] | 369.69 µM
O=C(NNC(=S)Nc1ccccc1Br)C1CCCC1 [Compound 4b, 4–(2-Bromophenyl)-1-cyclopentanoylthiosemicarbazide] | > 1000 µM
O=C(NNC(=S)Nc1cccc(I)c1)C1CCCC1 [Compound 6b, 1-Cyclopentanoyl-4–(3-iodophenyl)thiosemicarbazide] | 135.87 µM
O=C(NNC(=S)Nc1cccc([N+](=O)[O-])c1)C1CCCC1 [Compound 1b, 1-Cyclopentanoyl-4–(3-nitrophenyl)thiosemicarbazide] | 603.98 µM
O=C(NNC(=S)Nc1ccccc1Cl)C1CCCC1 [Compound 3b, 4–(2-Chlorophenyl)-1-cyclopentanoylthiosemicarbazide] | 512.31 µM
O=C(NNC(=S)Nc1ccc([N+](=O)[O-])cc1)C1CCCC1 [Compound 2b, 1-Cyclopentanoyl-4–(4-nitrophenyl)thiosemicarbazide] | 405.09 µM
COc1ccccc1NC(=S)NNC(=O)C1CCCC1 [Compound 7b, 1-Cyclopentanoyl-4–(2-methoxyphenyl)thiosemicarbazide] | > 1000 µM
Cc1ccc(NC(=S)NNC(=O)C2CCCC2)cc1 [Compound 8b, 1-Cyclopentanoyl-4–(4-methylphenyl)thiosemicarbazide] | 445.10 µM
O=C(NNC(=S)Nc1cc(F)ccc1F)C1CCCC1 [Compound 9b, 1-Cyclopentanoyl-4–(2,5-difluorophenyl)thiosemicarbazide] | > 1000 µM

Test system: L929 cells
Assay: not given
Conditions: cited from earlier work

SMILES | CC30
Cc1ccc(NC(=S)NNC(=O)c2[nH]cnc2C)cc1 [Compound 8a] | 361.73 µM

Test system: T. gondii tachyzoites RH-GFP strain
Assay: Influence of compounds during Toxoplasma growth, assay B (compounds present 24 h after penetration)
Type: cell-based, Toxoplasma gondii
Conditions: 3 h infection without compound, then compound at IC50Tg for 24 h, Hs27 cells, vs untreated cells

SMILES | number of tachyzoites per PV | percentage of infected cells
O=C(NNC(=S)Nc1cccc(I)c1)C1CCCC1 [Compound 6b, 1-Cyclopentanoyl-4–(3-iodophenyl)thiosemicarbazide] | significant reduction | not observable
O=C(NNC(=S)Nc1ccc([N+](=O)[O-])cc1)C1CCCC1 [Compound 2b, 1-Cyclopentanoyl-4–(4-nitrophenyl)thiosemicarbazide] | significant reduction | not observable

Test system: L929 cells
Assay: Cell viability assay (MTT, ISO 10993-5) on L929 mouse fibroblasts
Type: cell-based
Conditions: 24 h, concentration for 30% inhibition of cell proliferation
Source text: First, we evaluated the cytotoxic effects of 1b–9b, which is necessary prior to measuring anti-Toxoplasma and Tyr inhibition in order to exclude cytotoxic compounds. […] Cytotoxicity was estimated using mouse fibroblast (L929) cells line via MTT assay, according to the international standards ISO 10993–5:2009(E). […] Therefore, the obtained results were expressed as CC30, which was defined as the highest concentration of the compound that causes 30% damage of cells and was considered according to ISO as non-toxic.
The L929 mouse fibroblast (ATTC® CCL-1™, Manassas, VA) was routinely maintained in RPMI 1640 media (R8758, Sigma-Aldrich, Suffolk, UK), supplemented with 10% foetal bovine serum (Foetal Bovine Serum, ATCC® 30–2020™), 100 I.U./mL penicillin and 100 µg/mL streptomycin (Penicillin-Streptomycin Solution ATCC® 30–2300™). Cells were trypsinised (Trypsin-EDTA Solution, 1X ATCC® 30–2101™) twice a week and seeded at a density of 1 × 10^6 per T25 cell culture flask and incubated at 37 °C and 10% CO2 to achieve a confluent monolayer.
as §1

SMILES | CC30
O=C(NNC(=S)Nc1ccccc1I)C1CCCC1 [Compound 5b, 1-Cyclopentanoyl-4–(2-iodophenyl)thiosemicarbazide] | 333.25 µM
O=C(NNC(=S)Nc1ccccc1Br)C1CCCC1 [Compound 4b, 4–(2-Bromophenyl)-1-cyclopentanoylthiosemicarbazide] | 806.60 µM
O=C(NNC(=S)Nc1cccc(I)c1)C1CCCC1 [Compound 6b, 1-Cyclopentanoyl-4–(3-iodophenyl)thiosemicarbazide] | 117.68 µM
O=C(NNC(=S)Nc1cccc([N+](=O)[O-])c1)C1CCCC1 [Compound 1b, 1-Cyclopentanoyl-4–(3-nitrophenyl)thiosemicarbazide] | 616.52 µM
O=C(NNC(=S)Nc1ccccc1Cl)C1CCCC1 [Compound 3b, 4–(2-Chlorophenyl)-1-cyclopentanoylthiosemicarbazide] | 554.73 µM
O=C(NNC(=S)Nc1ccc([N+](=O)[O-])cc1)C1CCCC1 [Compound 2b, 1-Cyclopentanoyl-4–(4-nitrophenyl)thiosemicarbazide] | 378.39 µM and 378.4 µM
COc1ccccc1NC(=S)NNC(=O)C1CCCC1 [Compound 7b, 1-Cyclopentanoyl-4–(2-methoxyphenyl)thiosemicarbazide] | 886.29 µM
Cc1ccc(NC(=S)NNC(=O)C2CCCC2)cc1 [Compound 8b, 1-Cyclopentanoyl-4–(4-methylphenyl)thiosemicarbazide] | 463.37 µM
O=C(NNC(=S)Nc1cc(F)ccc1F)C1CCCC1 [Compound 9b, 1-Cyclopentanoyl-4–(2,5-difluorophenyl)thiosemicarbazide] | 860.66 µM

Test system: T. gondii RH strain
Assay: not given
Parameters: method as in PMID 30744161, PMID 31022878
Conditions: 50% inhibition of T. gondii proliferation in vitro; reported previously, listed for comparison; cited from earlier work

SMILES | IC50
Cc1ccc(NC(=S)NNC(=O)c2[nH]cnc2C)cc1 [Compound 8a] | 199 µM

Biological target: T1, Tyr from mushrooms (Agaricus bisporus, UniProt C7FF04)
T1 sequence (G1K3P4 entry or part of it): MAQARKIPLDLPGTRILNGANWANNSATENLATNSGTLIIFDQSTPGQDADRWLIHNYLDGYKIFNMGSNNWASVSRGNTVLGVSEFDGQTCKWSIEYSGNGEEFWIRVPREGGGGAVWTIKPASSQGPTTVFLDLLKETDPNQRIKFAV
T1 sequence (C7FF04 1-392): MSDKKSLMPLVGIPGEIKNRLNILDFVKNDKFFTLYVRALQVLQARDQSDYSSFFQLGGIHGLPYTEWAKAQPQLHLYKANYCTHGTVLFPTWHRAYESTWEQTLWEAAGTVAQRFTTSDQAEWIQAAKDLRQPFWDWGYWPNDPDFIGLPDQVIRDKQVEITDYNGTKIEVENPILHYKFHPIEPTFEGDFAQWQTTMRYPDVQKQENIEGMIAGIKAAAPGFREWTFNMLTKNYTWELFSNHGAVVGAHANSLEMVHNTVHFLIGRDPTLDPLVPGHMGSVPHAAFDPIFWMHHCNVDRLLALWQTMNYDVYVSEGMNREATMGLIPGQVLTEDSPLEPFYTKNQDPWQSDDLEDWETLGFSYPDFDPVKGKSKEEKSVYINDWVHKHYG
Assay: Kinetic analysis of the inhibition of tyrosinase (Lineweaver-Burk, Dixon, [L-tyrosine]/V vs [I] plots)
Type: biochemical, mushroom
Conditions: Lineweaver–Burk plots
Protocol: Therefore, these compounds were subsequently subjected to detailed kinetic studies to evaluate inhibition parameters. […] Dixon plots (Figure 7) were used in evaluating the KI values, while the plots of [L-tyrosine]/V vs. [I] (Figure 8), were employed to determine IC50Tyr[50]. [I] represents the concentration of the inhibitor. Rates were monitored spectrophotometrically by detecting changes in absorbance at 492 nm.
Solutions containing 80 µL of 0.625, 1.25, or 2.5 mM L-tyrosine and 50 µL of 20, 100, or 200 µM inhibitor were added to a 96-well plate. Then, solution containing 70 µL of Tyr (10 U) was added and the initial rate of dopachrome formation was determined through detecting the increase in absorbance at the wavelength of 492 nm (Δ492/min). […] In order to determine the inhibition constants KI the Dixon plots were constructed, whereas the plots of [L-tyrosine]/V vs. inhibitor concentration [I] were used for IC50Tyr evaluation. The results from three experiments are shown.

SMILES | character of inhibition
O=C(NNC(=S)Nc1cccc(I)c1)C1CCCC1 [Compound 6b, 1-Cyclopentanoyl-4–(3-iodophenyl)thiosemicarbazide] | mixed character of inhibition
O=C(NNC(=S)Nc1ccc([N+](=O)[O-])cc1)C1CCCC1 [Compound 2b, 1-Cyclopentanoyl-4–(4-nitrophenyl)thiosemicarbazide] | mixed character of inhibition

Test system: T. gondii RH strain
Assay: Antiparasitic assay: T. gondii RH proliferation in Hs27 cells, [3H]uracil incorporation
Type: cell-based, Toxoplasma gondii
Conditions: Toxoplasma gondii, HS27

SMILES | IC50
O=C(NNC(=S)Nc1ccccc1I)C1CCCC1 [Compound 5b, 1-Cyclopentanoyl-4–(2-iodophenyl)thiosemicarbazide] | 128 µM
O=C(NNC(=S)Nc1ccccc1Br)C1CCCC1 [Compound 4b, 4–(2-Bromophenyl)-1-cyclopentanoylthiosemicarbazide] | 218 µM
O=C(NNC(=S)Nc1cccc(I)c1)C1CCCC1 [Compound 6b, 1-Cyclopentanoyl-4–(3-iodophenyl)thiosemicarbazide] | 54.5 µM
O=C(NNC(=S)Nc1cccc([N+](=O)[O-])c1)C1CCCC1 [Compound 1b, 1-Cyclopentanoyl-4–(3-nitrophenyl)thiosemicarbazide] | 180 µM
O=C(NNC(=S)Nc1ccccc1Cl)C1CCCC1 [Compound 3b, 4–(2-Chlorophenyl)-1-cyclopentanoylthiosemicarbazide] | 368 µM
O=C(NNC(=S)Nc1ccc([N+](=O)[O-])cc1)C1CCCC1 [Compound 2b, 1-Cyclopentanoyl-4–(4-nitrophenyl)thiosemicarbazide] | 144 µM
COc1ccccc1NC(=S)NNC(=O)C1CCCC1 [Compound 7b, 1-Cyclopentanoyl-4–(2-methoxyphenyl)thiosemicarbazide] | 327 µM
Cc1ccc(NC(=S)NNC(=O)C2CCCC2)cc1 [Compound 8b, 1-Cyclopentanoyl-4–(4-methylphenyl)thiosemicarbazide] | 181 µM
O=C(NNC(=S)Nc1cc(F)ccc1F)C1CCCC1 [Compound 9b, 1-Cyclopentanoyl-4–(2,5-difluorophenyl)thiosemicarbazide] | 321 µM

Same assay, conditions: ratio of CC30 (L929) to IC50Tg

SMILES | SR (selectivity ratio)
O=C(NNC(=S)Nc1ccccc1I)C1CCCC1 [Compound 5b, 1-Cyclopentanoyl-4–(2-iodophenyl)thiosemicarbazide] | 2.60
O=C(NNC(=S)Nc1ccccc1Br)C1CCCC1 [Compound 4b, 4–(2-Bromophenyl)-1-cyclopentanoylthiosemicarbazide] | 3.70
O=C(NNC(=S)Nc1cccc(I)c1)C1CCCC1 [Compound 6b, 1-Cyclopentanoyl-4–(3-iodophenyl)thiosemicarbazide] | 2.16
O=C(NNC(=S)Nc1cccc([N+](=O)[O-])c1)C1CCCC1 [Compound 1b, 1-Cyclopentanoyl-4–(3-nitrophenyl)thiosemicarbazide] | 3.43
O=C(NNC(=S)Nc1ccccc1Cl)C1CCCC1 [Compound 3b, 4–(2-Chlorophenyl)-1-cyclopentanoylthiosemicarbazide] | 1.51
O=C(NNC(=S)Nc1ccc([N+](=O)[O-])cc1)C1CCCC1 [Compound 2b, 1-Cyclopentanoyl-4–(4-nitrophenyl)thiosemicarbazide] | 2.63
COc1ccccc1NC(=S)NNC(=O)C1CCCC1 [Compound 7b, 1-Cyclopentanoyl-4–(2-methoxyphenyl)thiosemicarbazide] | 2.71
Cc1ccc(NC(=S)NNC(=O)C2CCCC2)cc1 [Compound 8b, 1-Cyclopentanoyl-4–(4-methylphenyl)thiosemicarbazide] | 2.55
O=C(NNC(=S)Nc1cc(F)ccc1F)C1CCCC1 [Compound 9b, 1-Cyclopentanoyl-4–(2,5-difluorophenyl)thiosemicarbazide] | 2.68

Biological target: T1, Tyr from mushrooms
Assay: Inhibition of tyrosinase activity assay (screening at 25 µM)
Type: biochemical, mushroom
Conditions: read-out: Tyrosinase inhibition, at 25 µM compound, L-tyrosine substrate, 10 U Tyr, 30 min
Protocol: In our study, we used Tyr from mushrooms (T3824, Sigma) for all experiments. All compound dilutions, L-tyrosine a Tyr substrate, and Tyr were prepared in 50 mM phosphate buffer (pH 6.5). […] 100% Tyr activity we used for the sample without addition compound/inhibitor. […] The average results from three experiments are shown.

SMILES | inhibition at 25 µM
O=C(NNC(=S)Nc1cccc(I)c1)C1CCCC1 [Compound 6b, 1-Cyclopentanoyl-4–(3-iodophenyl)thiosemicarbazide] | 43.9 ± 3.4%
O=C(NNC(=S)Nc1ccc([N+](=O)[O-])cc1)C1CCCC1 [Compound 2b, 1-Cyclopentanoyl-4–(4-nitrophenyl)thiosemicarbazide] | 45.6 ± 2.8%

Test system: T. gondii tachyzoites RH-GFP strain
Assay: Influence of compounds during Toxoplasma growth, assay A (compounds present only during penetration)
Type: cell-based, Toxoplasma gondii
Conditions: compound at IC50Tg for 3 h during penetration, then 24 h free medium, Hs27 cells, vs untreated cells

SMILES | number of infected cells (infection index) | number of tachyzoites per PV
O=C(NNC(=S)Nc1cccc(I)c1)C1CCCC1 [Compound 6b, 1-Cyclopentanoyl-4–(3-iodophenyl)thiosemicarbazide] | significant reduction | significant reduction
O=C(NNC(=S)Nc1ccc([N+](=O)[O-])cc1)C1CCCC1 [Compound 2b, 1-Cyclopentanoyl-4–(4-nitrophenyl)thiosemicarbazide] | significant reduction | significant reduction
